# Laboratory results as given in ChEMBL document CHEMBL1201862, “PubChem BioAssay data set” (2004).
# Several values for one entry are separate records, joined by “and”; a condition that tells them apart may be missing. Identical values can stand only once.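 Briefly, cells in 96-well plates were exposed to five compound concentrations for 48 h, and endpoints were estimated by linear interpolation. Abbreviation: GI50, concentration required for 50% inhibition of growth.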 Activity calls are given as the source filed them. No stated cut-off is given here; in the data, active = GI50 up to about 1.1 µM and inactive = higher.
# Experiments:
# Assay in all cases: DTP human tumour cell line panel, 48 h
# [1] = test system: 786-0
# [2] = test system: A498
# [3] = test system: A549
# [4] = test system: ACHN
# [5] = test system: CAKI-1
# [6] = test system: CCRF-CEM
# [7] = test system: COLO 205
# [8] = test system: DLD-1
# [9] = test system: DMS-114
# [10] = test system: DMS-273
# [11] = test system: EKVX
# [12] = test system: HCC 2998
# [13] = test system: HCT-116
# [14] = test system: HCT-15
# [15] = test system: HL-60
# [16] = test system: HOP-62
# [17] = test system: HOP-92
# [18] = test system: HT-29
# [19] = test system: IGROV-1
# [20] = test system: K562
# [21] = test system: KM-20L2
# [22] = test system: KM12
# [23] = test system: LOX IMVI
# [24] = test system: LXFL 529
# [25] = test system: M14
# [26] = test system: M19-MEL
# [27] = test system: MOLT-4
# [28] = test system: Malme-3M
# [29] = test system: NCI-H23
# [30] = test system: NCI-H460
# [31] = test system: NCI-H522
# [32] = test system: OVCAR-3
# [33] = test system: OVCAR-4
# [34] = test system: OVCAR-5
# [35] = test system: OVCAR-8
# [36] = test system: RPMI-8226
# [37] = test system: RXF 393
# [38] = test system: SF-268
# [39] = test system: SF-295
# [40] = test system: SK-MEL-28
# [41] = test system: SK-MEL-2
# [42] = test system: SK-MEL-5
# [43] = test system: SK-OV-3
# [44] = test system: SN12C
# [45] = test system: SNB-19
# [46] = test system: SNB-75
# [47] = test system: SR
# [48] = test system: SW-620
# [49] = test system: TK-10
# [50] = test system: U-251
# [51] = test system: UACC-257
# [52] = test system: UACC-62
# [53] = test system: UO-31
# [54] = test system: XF498
# [55] = test system: NCI/ADR-RES
# [56] = test system: PC-3
# [57] = test system: SNB-78
# [58] = test system: BT-549
# [59] = test system: DU-145
# [60] = test system: Hs-578T
# [61] = test system: MCF7
# [62] = test system: MDA-MB-231
# [63] = test system: MDA-MB-435
# [64] = test system: MDA-N
# [65] = test system: NCI-H226
# [66] = test system: SF-539
# [67] = test system: T47D
structure (smiles),measurement,setting,value
O=C1Oc2cc3c(c4cccc1c24)OCN(c1ccccc1)C3,GI50,[1],> 100 µM (inactive)
same,GI50,[2],> 100 µM (inactive)
same,GI50,[3],> 100 µM (inactive)
same,GI50,[4],> 100 µM (inactive)
same,GI50,[5],78.3 µM (inactive)
same,GI50,[6],29.1 µM (inactive)
same,GI50,[7],> 100 µM (inactive)
same,GI50,[8],> 100 µM (inactive)
same,GI50,[9],38.1 µM (inactive)
same,GI50,[10],> 100 µM (inactive)
same,GI50,[11],> 100 µM (inactive)
same,GI50,[12],> 100 µM (inactive)
same,GI50,[13],> 100 µM (inactive)
same,GI50,[14],79.1 µM
same,GI50,[15],43.5 µM (inactive)
same,GI50,[16],> 100 µM (inactive)
same,GI50,[17],41.7 µM (inactive)
same,GI50,[18],> 100 µM (inactive)
same,GI50,[19],> 100 µM (inactive)
same,GI50,[20],23.2 µM (inactive)
same,GI50,[21],> 100 µM (inactive)
same,GI50,[22],> 100 µM (inactive)
same,GI50,[23],43.7 µM (inactive)
same,GI50,[24],38.6 µM (inactive)
same,GI50,[25],> 100 µM (inactive)
same,GI50,[26],38.8 µM (inactive)
same,GI50,[27],> 100 µM (inactive)
same,GI50,[28],> 100 µM (inactive)
same,GI50,[29],> 100 µM (inactive)
same,GI50,[30],> 100 µM (inactive)
same,GI50,[31],26.2 µM (inactive)
same,GI50,[32],> 100 µM (inactive)
same,GI50,[33],> 100 µM (inactive)
same,GI50,[34],> 100 µM (inactive)
same,GI50,[35],> 100 µM (inactive)
same,GI50,[36],35.1 µM (inactive)
same,GI50,[37],> 100 µM (inactive)
same,GI50,[38],> 100 µM (inactive)
same,GI50,[39],> 100 µM (inactive)
same,GI50,[40],> 100 µM (inactive)
same,GI50,[41],> 100 µM (inactive)
same,GI50,[42],> 100 µM (inactive)
same,GI50,[43],> 100 µM (inactive)
same,GI50,[44],> 100 µM (inactive)
same,GI50,[45],> 100 µM (inactive)
same,GI50,[46],> 100 µM (inactive)
same,GI50,[47],44.8 µM (inactive)
same,GI50,[48],83.9 µM (inactive)
same,GI50,[49],> 100 µM (inactive)
same,GI50,[50],> 100 µM (inactive)
same,GI50,[51],> 100 µM (inactive)
same,GI50,[52],36.5 µM (inactive)
same,GI50,[53],> 100 µM (inactive)
same,GI50,[54],> 100 µM (inactive)
CCC1(O)CC(OC2CC(N(C)C)C(OC3CC4OC5CC(=O)C(C)OC5OC4C(C)O3)C(C)O2)c2c(cc3c(c2O)C(=O)c2c(O)ccc(O)c2C3=O)C1C(=O)OC (stereo not drawn),GI50,[8],0.00792 µM (active)
same,GI50,[9],0.00575 µM (active)
same,GI50,[10],0.00365 µM (active)
same,GI50,[17],0.00624 µM (active)
same,GI50,[23],0.000953 µM (active)
same,GI50,[24],> 0.01 µM (active)
same,GI50,[25],> 10 nM (active) and 5.62 nM (active)
same,GI50,[26],0.00887 µM (active)
same,GI50,[31],0.00224 µM (active)
same,GI50,[55],0.00479 µM (active)
same,GI50,[32],> 10 nM (active) and 5.92 nM (active)
same,GI50,[56],0.00315 µM (active)
same,GI50,[57],0.0166 µM (active)
same,GI50,[54],0.00828 µM (active)
C#CCSc1nc(N)c2ncn(C3OC(CO)C(O)C3O)c2n1 (stereo not drawn),GI50,[1],> 100 µM (inactive)
same,GI50,[2],> 100 µM (inactive)
same,GI50,[3],> 100 µM (inactive)
same,GI50,[4],> 100 µM (inactive)
same,GI50,[6],> 100 µM (inactive)
same,GI50,[7],> 100 µM (inactive)
same,GI50,[8],> 100 µM (inactive)
same,GI50,[9],> 100 µM (inactive)
same,GI50,[10],> 100 µM (inactive)
same,GI50,[11],> 100 µM (inactive)
same,GI50,[12],> 100 µM (inactive)
same,GI50,[13],> 100 µM (inactive)
same,GI50,[14],> 100 µM
same,GI50,[15],> 100 µM (inactive)
same,GI50,[16],> 100 µM (inactive)
same,GI50,[18],> 100 µM (inactive)
same,GI50,[19],> 100 µM (inactive)
same,GI50,[20],> 100 µM (inactive)
same,GI50,[22],> 100 µM (inactive)
same,GI50,[23],> 100 µM (inactive)
same,GI50,[24],> 100 µM (inactive)
same,GI50,[26],> 100 µM (inactive)
same,GI50,[27],> 100 µM (inactive)
same,GI50,[28],> 100 µM (inactive)
same,GI50,[29],> 100 µM (inactive)
same,GI50,[30],> 100 µM (inactive)
same,GI50,[31],> 100 µM (inactive)
same,GI50,[32],> 100 µM (inactive)
same,GI50,[33],> 100 µM (inactive)
same,GI50,[35],> 100 µM (inactive)
same,GI50,[36],> 100 µM (inactive)
same,GI50,[37],> 100 µM (inactive)
same,GI50,[38],> 100 µM (inactive)
same,GI50,[39],> 100 µM (inactive)
same,GI50,[40],> 100 µM (inactive)
same,GI50,[42],> 100 µM (inactive)
same,GI50,[44],> 100 µM (inactive)
same,GI50,[45],> 100 µM (inactive)
same,GI50,[57],> 100 µM (inactive)
same,GI50,[47],> 100 µM (inactive)
same,GI50,[48],> 100 µM (inactive)
same,GI50,[49],> 100 µM (inactive)
same,GI50,[50],> 100 µM (inactive)
same,GI50,[51],> 100 µM (inactive)
same,GI50,[53],> 100 µM (inactive)
same,GI50,[54],> 100 µM (inactive)
Cc1c(-c2nc(N)nc(C3CC3)c2C)nc(N)nc1C1CC1,GI50,[1],> 100 µM (inactive)
same,GI50,[2],> 100 µM (inactive)
same,GI50,[3],> 100 µM (inactive)
same,GI50,[4],> 100 µM (inactive)
same,GI50,[58],> 100 µM (inactive)
same,GI50,[5],> 100 µM (inactive)
same,GI50,[6],> 100 µM (inactive)
same,GI50,[7],> 100 µM (inactive)
same,GI50,[59],> 100 µM (inactive)
same,GI50,[11],> 100 µM (inactive)
same,GI50,[12],> 100 µM (inactive)
same,GI50,[13],> 100 µM (inactive)
same,GI50,[14],> 100 µM
same,GI50,[15],> 100 µM (inactive)
same,GI50,[16],> 100 µM (inactive)
same,GI50,[17],> 100 µM (inactive)
same,GI50,[18],> 100 µM (inactive)
same,GI50,[60],> 100 µM (inactive)
same,GI50,[19],> 100 µM (inactive)
same,GI50,[20],> 100 µM (inactive)
same,GI50,[22],> 100 µM (inactive)
same,GI50,[23],> 100 µM (inactive)
same,GI50,[25],> 100 µM (inactive)
same,GI50,[61],> 100 µM (inactive)
same,GI50,[62],> 100 µM (inactive)
same,GI50,[63],> 100 µM (inactive)
same,GI50,[64],> 100 µM (inactive)
same,GI50,[27],> 100 µM (inactive)
same,GI50,[28],> 100 µM (inactive)
same,GI50,[65],> 100 µM (inactive)
same,GI50,[29],> 100 µM (inactive)
same,GI50,[30],> 100 µM (inactive)
same,GI50,[31],> 100 µM (inactive)
same,GI50,[55],> 100 µM (inactive)
same,GI50,[32],> 100 µM (inactive)
same,GI50,[33],> 100 µM (inactive)
same,GI50,[34],> 100 µM (inactive)
same,GI50,[35],> 100 µM (inactive)
same,GI50,[56],> 100 µM (inactive)
same,GI50,[36],> 100 µM (inactive)
same,GI50,[37],> 100 µM (inactive)
same,GI50,[38],> 100 µM (inactive)
same,GI50,[39],> 100 µM (inactive)
same,GI50,[66],> 100 µM (inactive)
same,GI50,[40],> 100 µM (inactive)
same,GI50,[41],> 100 µM (inactive)
same,GI50,[42],> 100 µM (inactive)
same,GI50,[43],> 100 µM (inactive)
same,GI50,[44],> 100 µM (inactive)
same,GI50,[45],> 100 µM (inactive)
same,GI50,[46],> 100 µM (inactive)
same,GI50,[47],> 100 µM (inactive)
same,GI50,[48],> 100 µM (inactive)
same,GI50,[67],> 100 µM (inactive)
same,GI50,[49],> 100 µM (inactive)
same,GI50,[50],> 100 µM (inactive)
same,GI50,[51],> 100 µM (inactive)
same,GI50,[52],> 100 µM (inactive)
same,GI50,[53],> 100 µM (inactive)
